Each structure is given as a SMILES string.

In series [1] the test system is spasmodic seizures caused by pentetrazole. The series can be described thus: antipentetrazole test (oral, mice). Format: in vivo. As to conditions: Mus musculus, 0.5 h, p.o., 120 mg/kg pentetrazole i.p. 30 minutes later, 10 animals per dosage, Probit method, dosage protecting 50% of animals. As for the experimental part: As mentioned above, the compounds of formula I have valuable pharmacological properties. In particular, they display pronounced muscle relaxant, sedative-hypnotic, anticonvulsive and/or anxiolytic properties and have a low toxicity.
(§1) In this animal experiment the compound under investigation is administered orally to mice and 30 minutes later there are administered intraperitoneally 120 mg/kg of pentetrazole, which causes emprosthotonus and tonic stretchings of the fore and/or hind limbs in unprotected animals 1-4 minutes after the injection. 10 experimental animals are used per dosage of test substance. After counting the protected experimental animals the ED50 is determined according to the Probit method. The ED50 is that dosage which protects 50% of the experimental animals from the spasmodic seizures caused by pentetrazole. The results which have been obtained with representative members of the class of compound defined by formula I in the experiment described previously are compiled in the following Table. Moreover, the Table contains data concerning the acute toxicity (LD50) of some of these compounds in mg/kg in the case of single oral administration to mice.

Series [2] is described as follows: acute toxicity (LD50), single oral administration to mice. The conditions noted are these: mouse, in vivo, p.o. As for the experimental part:
as §1

A word on the ED50: it is the midpoint of the dose-response relation. A word on the LD50: it is the dose at which mortality reaches 50%. In series [1], `CO[C@H]1CCN(C(=O)c2cc(-c3ccccc3)c(=O)n3c2-c2sccc2C3)C1` [H, 3-MeO-pyrrolidino, --S--CH=CH--, (S)-1-[(4,6-dihydro-6-oxo-7-phenylthieno[2',3':3,4]pyrrolo[1,2-a]-pyridin-9-yl)carbonyl]-3-methoxypyrrolidine] gave an ED50 of 1.7 mg/kg. The compound further registered an LD50 in series [2] of 375 mg/kg.

In the case of `COC1CN(C(=O)c2cc(-c3ccccc3)c(=O)n3c2-c2sccc2C3)C1` [H, 3-MeO-azetidino, --S--CH=CH--, 1-[(4,6-dihydro-6-oxo-7-phenylthieno[2',3':3,4]pyrrolo[1,2-a]pyridin-9-yl)-carbonyl]-3-methoxyazetidine], the ED50 in series [1] was determined as 2.1 mg/kg. In series [2], this compound had an LD50 of 2500 mg/kg.

In series [1], `COC[C@H]1CCCN1C(=O)c1cc(-c2ccccc2)c(=O)n2c1-c1ccccc1C2` [H, (R)-2-MeOCH2 --Py--, --CH=CH--CH=CH--, (R)-1-[[4,6-dihydro-4-oxo-3-phenylpyrido[2,1-a]isoindol-1-yl]carbonyl]-2-(methoxymethyl)pyrrolidine] displayed an ED50 of 2.3 mg/kg. For the same compound, the LD50 in series [2] was 1500 mg/kg.

`COC1CN(C(=O)c2cc(-c3ccccc3)c(=O)n3c2-c2ccccc2C3)C1` [H, 3-MeO-azetidino, --CH=CH--CH=CH--, 1-[(4,6-dihydro-4-oxo-3-phenylpyrido[2,1-a]isoindol-1-yl)carbon-yl]-3-methoxyazetidine] had an ED50 in series [1] of 0.39 mg/kg.

In the case of `COC1CN(C(=O)c2cc(-c3ccccc3)c(=O)n3c2-c2c(Cl)cccc2C3)C1` [H, 3-MeO-azetidino, --CCl=CH--CH=CH--, 1-[(10-chloro-4,6-dihydro-4-oxo-3-phenylpyrido[2,1-a]isoindol-1-yl)carbonyl]-3-methoxyazetidine], in series [1], the ED50 amounted to 2.2 mg/kg.

For the compound `COC[C@H]1CCCN1C(=O)c1cc(-c2ccccc2)c(=O)n2c1-c1sccc1C2` [H, (R)-2-MeOCH2 --Py--, --S--CH=CH--, (R)-1-[(4,6-dihydro-6-oxo-7-phenylthieno[2',3':3,4]pyrrolo[1,2-a]pyridin-9-yl)carbonyl]-2-(methoxymethyl)pyrrolidine], it took a dose of 0.76 mg/kg to reach the 50% effect level in series [1] (ED50). In series [2], this compound registered an LD50 of 625 mg/kg.

With `O=C(c1cc(-c2ccccc2)c(=O)n2c1-c1sccc1C2)N1CCOCC1` [H, Morpholino, --S--CH=CH--, 4-[(4,6-dihydro-6-oxo-7-phenylthieno[2',3':3,4]pyrrolo[1,2-a]pyridin-9-yl)carbonyl]-morpholine], the ED50 in series [1] was 1.32 mg/kg. Moreover, the LD50 in series [2] was found to be 5000 mg/kg.

As to `CN1CCN(C(=O)c2cc(-c3ccccc3)c(=O)n3c2-c2ccccc2C3)CC1.Cl` [H, 4-Me-piperazino, --CH=CH--CH=CH--, 1-[(4,6-dihydro-4-oxo-3-phenylpyrido[2,1-a]isoindol-1-yl)carbonyl]-4-methyl-piperazine hydrochloride], in series [1], the ED50 worked out at 5.7 mg/kg. The compound further came in with an LD50 in series [2] of 312 mg/kg.

Regarding `CN(C)C(=O)c1cc(-c2ccccc2)c(=O)n2c1-c1ccccc1C2` [H, Me2 N--, --CH=CH--CH=CH--, N,N-dimethyl-4,6-dihydro-4-oxo-3-phenylpyrido[2,1-a]isoindole-1-carboxamide], the ED50 in series [1] was determined as 0.73 mg/kg. Further, the LD50 in series [2] stood at 375 mg/kg.
